Source: patent US20240307374A1, “FORMULATION OF FURIN INHIBITOR FOR INHALATION” (BP ASSET V, INC., priority 2021, published 2024)
In brackets after ≈: the same amount, converted by molar mass. Entries after “also recorded” stand apart in the source; their conditions may differ. Read-outs that look alike come from different tables or passages of the source. Marks after values point to notes of the source that are not given here.

Columns and labels:
Type in all cases: physicochemical
[1] = Approximate solubility at RT
Protocol: Four freeform isolation experiments were performed in different solvent with different acids. Solids were obtained in DCM/HCl and CHCl3/HCl system.
Approximately 2 mg solids were added into a 3-mL glass vial. Solvents in the following table were then added stepwise (50-50-200-700[…] for each step) into the vials and stirred until the solids were dissolved or a total volume of 1 mL was reached. The solubility results were used to guide the solvent selection in polymorph formation.

[2] = DVS (dynamic vapor sorption) moisture uptake; conditions: for Moisture Uptake (DVS): 25° C., from 0% RH to 80% RH; for form change after DVS test (XRPD): XRPD before and after DVS
Protocol: (FIG. 5). Sample weight decreased rapidly when humidity decreased from 10% to 0%, which might be caused by loss of crystalline water.
DVS was measured via a SMS (Surface Measurement Systems) DVS Intrinsic.

[3] = Equilibrium solubility in pH buffers (3.0-8.0), 20% captisol and water
Protocol: Additional solids were added into the sample to generate suspension if clear solution obtained. The suspension was equilibrated via stirring (1000 rpm). The suspension was centrifuged to obtain precipitate and supernatants.
Solubility and pH were tested for the supernatants after filtration, and isolated precipitate was tested by XRPD.
• 1. pH=3.0 buffer (50 mM HCl+KCl): Weigh 365.39 mg KCl into a 100 mL volumetric flask (VF), and add 0.1 mL 1M HCl into the VF, and dilute to volume with water. • 2. pH=4.0 buffer (50 mM citrate): Weigh 56.74 mg citric acid and 60.18 mg trisodium citrate into a 10 mL volumetric flask, and dilute to volume with water. • 3. pH=5.0 buffer (50 mM citrate) Weigh 11.12 mg citric acid and 95.38 mg trisodium citrate into a 10 mL volumetric flask, and dilute to volume with water. • 4. pH=6.0 buffer (50 mM citrate) Weigh 11.04 mg citric acid and 130.2 mg trisodium citrate into a 10 mL volumetric flask, and dilute to volume with water. • 5. pH=6.0 buffer (50 mM phosphate) Weigh 8.7 mg Na2HPO4 and 52.6 mg NaH2PO4 into a 10 mL volumetric flask, and dilute to volume with water. • 6. pH=7.0 buffer (50 mM phosphate) Weigh 23.47 mg Na2HPO4 and 43.34 mg NaH2PO4into a 10 mL volumetric flask, and dilute to volume with water. • 7. pH=8.0 buffer (50 mM phosphate) Weigh 31.64 mg Na2HPO4 and 67.18 mg NaH2PO4into a 10 mL volumetric flask, and dilute to volume with water.

Grinding stability = conditions: ~30 mg ground manually in a mortar for about 5 minutes
[4] = Equilibrium solubility of freeform Type D in pH=4.0 and 5.0 citrate/phosphate buffers; conditions: for Form: XRPD of precipitate; for Form / solubility at 24 h / End pH (24 hours): citrate/phosphate buffer; for Form / solubility at 24 h / solid form after equilibrium (XRPD): 24 hours; for solubility at 24 h: aqueous buffer, thermodynamic from solid; for solid form after equilibrium (XRPD): RT
Protocol: The suspension was equilibrated via stirring (1000 rpm) for 24 hours. The suspension was centrifuged to obtain precipitate and supernatants. Solubility and pH were tested for the supernatants after filtration, and isolated precipitate was tested by XRPD.

[5] = Humidity induced experiments (solid-state stability of freeform Type D under different humidities); conditions: ~7%, ~22%, ~43%, ~58%, ~84% RH, RT, 6 weeks
Protocol: The 3-mL vial was then placed into a 20-mL vial with 4 mL of the corresponding saturated salt solution. The 20-mL vial was sealed with a cap and kept at RT for the water vapor to interact with the solid.

[6] = Formulation development with NaCl; conditions: ~35 mg freeform Type D + ~9.6 mg citric acid + ~6.1 mg NaCl in water
Protocol: The concentration of freeform in the suspension was 0.60 mg/mL (pH 3.8). […] The experiment was redone, and a clear solution (a little cloudy) was obtained immediately after adding 1 mL water into ˜32 mg/mL API+9.6 mg/mL critic acid, solid precipitated out after addition of NaCl.

[7] = Complexation stability constant test: solubility in SBECD solutions; conditions: for solubility at 24 h: thermodynamic from solid
Protocol: Additional solid was added into the sample to generate suspension if clear solution was obtained. The suspension was equilibrated via stirring (1000 rpm) for 24 hours. The suspension was centrifuged to obtain precipitate and supernatants. Solubility and pH was determined for the supernatants after filtration, and XRPD was obtained for the isolated precipitate.

[8] = 20% Captisol (pH = 5.0, w/v), 24 hrs
[9] = pH = 3.0 buffer (50 mM HCl + KCl), 24 hrs
[10] = pH = 5.0 buffer (50 mM citrate), 24 hrs
[11] = pH = 6.0 buffer (50 mM citrate), 24 hrs
[12] = pH = 7.0 buffer (50 mM phosphate), 24 hrs
[13] = pH = 8.0 buffer (50 mM phosphate), 24 hrs

## CC(=O)NCC1CCN(Cc2cc(Oc3ccc(N4CCN(CCC(=O)O)CC4)nc3)nc(-c3cc(Cl)cc(Cl)c3)c2)CC1 [Freeform Type A]
[1]; 1,4-dioxane, organic solvent or mixture, thermodynamic from solid, 1,4-Dioxane, RT, read-out: Solubility
  solubility: < 1900 µg/mL
[1]; 2-MeTHF, organic solvent or mixture, thermodynamic from solid, 2-MeTHF, RT, read-out: Solubility
  solubility: < 1700 µg/mL
[1]; ACN, organic solvent or mixture, thermodynamic from solid, ACN, RT, read-out: Solubility
  solubility: < 1900 µg/mL
[1]; Anisole, organic solvent or mixture, thermodynamic from solid, Anisole, RT, read-out: Solubility
  solubility: < 2000 µg/mL
[1]; CHCl3, RT, solvent for freeform isolation
  solubility: S < 1.2 mg/mL
[1]; CHCl3, organic solvent or mixture, thermodynamic from solid, CHCl3, RT, read-out: Solubility
  solubility: < 2100 µg/mL
[1]; CPME, organic solvent or mixture, thermodynamic from solid, CPME, RT, read-out: Solubility
  solubility: < 2000 µg/mL
[1]; DCM, organic solvent or mixture, thermodynamic from solid, DCM, RT, read-out: Solubility
  solubility: < 1800 µg/mL
[1]; DMSO, organic solvent or mixture, thermodynamic from solid, DMSO, RT, read-out: Solubility
  solubility: 17000 to 34000 µg/mL (≈ 26.5 to 53 mM)
[1]; EtOAc, organic solvent or mixture, thermodynamic from solid, EtOAc, RT, read-out: Solubility
  solubility: < 2000 µg/mL
[1]; EtOH, organic solvent or mixture, thermodynamic from solid, EtOH, RT, read-out: Solubility
  solubility: 7300 to 22000 µg/mL (≈ 11.4 to 34.3 mM)
[1]; IPA, organic solvent or mixture, thermodynamic from solid, IPA, RT, read-out: Solubility
  solubility: 1500 to 1800 µg/mL (≈ 2.34 to 2.81 mM)
[1]; IPAc, organic solvent or mixture, thermodynamic from solid, IPAc, RT, read-out: Solubility
  solubility: < 1900 µg/mL
[1]; MIBK, organic solvent or mixture, thermodynamic from solid, MIBK, RT, read-out: Solubility
  solubility: < 2100 µg/mL
[1]; MTBE, organic solvent or mixture, thermodynamic from solid, MTBE, RT, read-out: Solubility
  solubility: < 1900 µg/mL
[1]; MeOH, organic solvent or mixture, thermodynamic from solid, MeOH, RT, read-out: Solubility
  solubility: > 40000 µg/mL
[1]; THF, organic solvent or mixture, thermodynamic from solid, THF, RT, read-out: Solubility
  solubility: 4000 to 8000 µg/mL (≈ 6.23 to 12.5 mM)
[1]; Toluene, organic solvent or mixture, thermodynamic from solid, Toluene, RT, read-out: Solubility
  solubility: < 2100 µg/mL
[1]; acetone, organic solvent or mixture, thermodynamic from solid, Acetone, RT, read-out: Solubility
  solubility: < 1900 µg/mL
[1]; n-Heptane, organic solvent or mixture, thermodynamic from solid, n-Heptane, RT, read-out: Solubility
  solubility: < 2200 µg/mL
[1]; water, thermodynamic from solid, H2O, RT, read-out: Solubility
  solubility: < 2000 µg/mL
[2]
  Moisture Uptake (DVS): 6.8% (from 0% RH to 80% RH)
  form change after DVS test (XRPD): No form change
[3]; 50 mM phosphate buffer, 21 °C, pH 8, aqueous buffer, thermodynamic from solid, pH = 8.0 buffer (50 mM phosphate), RT, 24 hrs, read-out: S: solubility
  solubility at 24 h: 20 µg/mL (≈ 0.0312 mM)
[3]; [8]
  FC: form change (XRPD of precipitate): N (N: solid form not changed)
  pH of supernatant (final pH): 7.7
[3]; 20% Captisol (pH = 5.0, w/v), RT, 24 hrs
  S: solubility: 12.1 mg/mL
[3]; H2O, 24 hrs
  FC: form change (XRPD of precipitate): N (N: solid form not changed)
  pH of supernatant (final pH): 6.8
[3]; all media, 24 hours
  form change after equilibrium in all media: No form change
[3]; [9]
  FC: form change (XRPD of precipitate): N (N: solid form not changed)
  pH of supernatant (final pH): 6.3
[3]; pH = 3.0 buffer (50 mM HCl + KCl), RT, 24 hrs
  S: solubility: 0.05 mg/mL
[3]; pH = 4.0 buffer (50 mM citrate), 24 hrs
  pH of supernatant (final pH): 4.8
[3]; pH = 4.0 buffer (50 mM citrate), RT, 24 hrs
  S: solubility: >17.9^# mg/mL
[3]; [10]
  FC: form change (XRPD of precipitate): N (N: solid form not changed)
  pH of supernatant (final pH): 5.2
[3]; pH = 5.0 buffer (50 mM citrate), RT, 24 hrs
  S: solubility: 3.31 mg/mL
[3]; [11]
  FC: form change (XRPD of precipitate): N (N: solid form not changed)
  pH of supernatant (final pH): 6.1
[3]; pH = 6.0 buffer (50 mM citrate), RT, 24 hrs
  S: solubility: 0.18 mg/mL
[3]; [12]
  FC: form change (XRPD of precipitate): N (N: solid form not changed)
  pH of supernatant (final pH): 7.1
[3]; [13]
  FC: form change (XRPD of precipitate): N (N: solid form not changed)
  pH of supernatant (final pH): 8.0
Grinding stability
  crystallinity after grinding (XRPD): decreased after grinding

## CC(=O)NCC1CCN(Cc2cc(Oc3ccc(N4CCN(CCC(=O)O)CC4)nc3)nc(-c3cc(Cl)cc(Cl)c3)c2)CC1 [Freeform Type D]
[2]
  Moisture Uptake (DVS): 6.3% (from 0% RH to 80% RH)
  form change after DVS test (XRPD): No form change
[4]; initial pH 4.0, RT
  Form: Low crystallinity*
  solubility at 24 h: 30600 µg/mL (≈ 47.7 mM)
  End pH (24 hours): 5.2
[4]; initial pH 5.0, RT
  Form: Freeform Type D
  solubility at 24 h: 1290 µg/mL (≈ 2.01 mM)
  End pH (24 hours): 5.2
[4]; pH=4.0 citrate/phosphate
  solid form after equilibrium (XRPD): Low crystallinity sample
[4]; pH=5.0 citrate/phosphate
  solid form after equilibrium (XRPD): no form change
[5]
  form change after exposure to different humidity levels (XRPD): no form change; also recorded: kinetically stable for at least 6 weeks
[6]; 24 hours
  pH: 3.8
[6]; 24 hours stirring
  concentration of freeform in the suspension: 600 µg/mL
[7]; 5% (w/w) SBECD solution, aqueous with cosolvent or surfactant or cyclodextrin, 5% (w/w) SBECD, RT, 24 hours, final pH 7.8, read-out: Solubility
  solubility at 24 h: 2610 µg/mL
[7]; 5% (w/w) SBECD solution, pH 7.8, aqueous with cosolvent or surfactant or cyclodextrin, 5% SBECD (54.23 mmol/L), read-out: API Solubility
  solubility at 24 h: 4.07 mM
[7]; 10% (w/w) SBECD solution, aqueous with cosolvent or surfactant or cyclodextrin, 10% (w/w) SBECD, RT, 24 hours, final pH 7.9, read-out: Solubility
  solubility at 24 h: 6470 µg/mL
[7]; 10% (w/w) SBECD solution, pH 7.9, aqueous with cosolvent or surfactant or cyclodextrin, 10% SBECD (108.46 mmol/L), read-out: API Solubility
  solubility at 24 h: 10.1 mM
[7]; 15% (w/w) SBECD solution, aqueous with cosolvent or surfactant or cyclodextrin, 15% (w/w) SBECD, RT, 24 hours, final pH 7.9, read-out: Solubility
  solubility at 24 h: 8810 µg/mL
[7]; 15% (w/w) SBECD solution, pH 7.9, aqueous with cosolvent or surfactant or cyclodextrin, 15% SBECD (162.70 mmol/L), read-out: API Solubility
  solubility at 24 h: 13.7 mM
[7]; 20% (w/w) SBECD solution, aqueous with cosolvent or surfactant or cyclodextrin, 20% (w/w) SBECD, RT, 24 hours, final pH 7.9, read-out: Solubility
  solubility at 24 h: 9350 µg/mL
[7]; 20% (w/w) SBECD solution, pH 7.9, aqueous with cosolvent or surfactant or cyclodextrin, 20% SBECD (216.93 mmol/L), read-out: API Solubility
  solubility at 24 h: 14.6 mM
[7]; 25% (w/w) SBECD solution, aqueous with cosolvent or surfactant or cyclodextrin, 25% (w/w) SBECD, RT, 24 hours, final pH 7.9, read-out: Solubility
  solubility at 24 h: 11000 µg/mL
[7]; 25% (w/w) SBECD solution, pH 7.9, aqueous with cosolvent or surfactant or cyclodextrin, 25% SBECD (271.16 mmol/L), read-out: API Solubility
  solubility at 24 h: 17.1 mM
[7]; SBECD solutions, 24 hours
  form change during solubility evaluation (XRPD): No form change
[7]; SBECD, Higuchi-Connors phase-solubility method
  complexation stability constant K^1:1: 3831 M⁻¹
